Test results published in patent US20260317367A1, “SALTS INCLUDING CRYSTALLINE SALTS OF 25-HYDROXY-CHOLEST-5-EN-3-SULFATE AND METHODS FOR PREPARING SAME” (Durect Corporation, priority 2022, published 2026).
Counter-ions that a name gives are not always drawn. Like-named read-outs stand apart in the source and are kept apart here. Values belong to the molecule of their own block, whether it stands above or below them.

What was measured:
Type in all cases: physicochemical
[1] = Overall rank order of powder flowability (angle of repose and Hausner ratio); conditions: for Powder flowability, overall (in words): angle of repose and compressibility index/Hausner ratio combined; for Angle of Repose Rank Order / Hausner Ratio Rank Order / Overall Rank Order (Total Score): lower is better flow; for Overall Rank Order (Total Score): sum of both ranks
Excerpt: Table C5 was generated by adding the relative rank order of the 25HC3S salts for angle of repose and Hausner ratio results, and creating an Over All Rank Order of the salts powder flowability. The salts with the lower overall rank order score had better powder flowability.

[2] = Thermogravimetric analysis (TGA), weight loss
In short: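 Mettler-Toledo TGA/DSC3, calibrated with indium, tin and zinc, balance checked with calcium oxalate. Sample in a hermetically sealed aluminium pan with pierced lid, heated under nitrogen from ambient to 350° C at 10° C/min. Weight loss reported against sample temperature.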

[3] = Angle of repose of 25HC3S salts
In short: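 About 2 g of salt powder was poured through a 7 mm inner-diameter tube into a 21.14 mm rubber O-ring, forming a cone of fixed diameter. Cone height was measured with calipers and the angle of repose was calculated from it. Flow was classified per USP<1174>.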

[4] = Hausner ratio and compressibility index of 25HC3S salts; conditions: for Compressibility Index: Table C3 heads this index in %
In short: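 Powder poured into a 5 mL graduated cylinder to about 5.0 mL (Vo), tapped 200 then 100 more times on a hard surface; final volume Vf recorded after 300 taps. Compressibility index and Hausner ratio calculated from Vo and Vf; flow character classed per USP <1174>.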

[5] = Appearance (color, clumping, flowability) of stored 25HC3S salts
[6] = Final pH of the solubility sample solutions in aqueous media; conditions: for pH of the solubility sample, 0.9% Sodium Chloride: 0.9% sodium chloride (blank 5.8); for pH of the solubility sample, 5% Dextrose: 5% dextrose (blank 4.7); for pH of the solubility sample, FaSSGF: FaSSGF (blank 1.5, 1.6); for pH of the solubility sample, FaSSIF: FaSSIF (blank 6.5, 6.5); for pH of the solubility sample, FeSSIF: FeSSIF (blank 4.9, 5.0); for pH of the solubility sample, Water: water (blank 6.3)
In short: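 Undiluted HPLC assay of centrifuged (12000 rpm, 12–15 min) supernatants from aqueous 25HC3S salt suspensions. These suspensions were kept with excess solid and shaken one day at room temperature, 210 motions/min.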

- Powder flowability, overall (in words) ([1]; listed as magnesium): poorer flowability
- Angle of Repose Rank Order ([1]; listed as 25HC3S magnesium): 7
- Hausner Ratio Rank Order ([1]; listed as 25HC3S magnesium): 14
- Overall Rank Order (Total Score) ([1]; listed as 25HC3S magnesium): 21
- Weight loss by TGA up to 127° C. ([2]; up to 127° C.): about 1.5%
- Flow Property per USP<1174> Powder Flow ([3]; classification by angle of repose, listed as 25HC3S magnesium): Fair - aid not needed
- Angle of Repose ([3]; listed as 25HC3S magnesium): 37.7 degrees
- Angle of Repose, Rounded Whole Number ([3]; listed as 25HC3S magnesium): 38 degrees
- Compressibility Index ([4]; listed as 25HC3S magnesium): 36
- Hausner Ratio ([4]; listed as 25HC3S magnesium): 1.56
- Appearance ([5]; 2-8° C., 3 wk, listed as 25HC3S magnesium): White, free flowing powder, no clumping
- Appearance ([5]; 60° C., 1 wk (after 3 weeks at 2-8° C.), listed as 25HC3S magnesium): Brown, melted material stuck to bottom
- Appearance after 3 weeks at 80° C. ([5]; 80° C., 3 weeks): completely burned
- Appearance ([5]; 80° C., 3 wk, listed as 25HC3S magnesium): Dark brown, melted material stuck to
- pH of the solubility sample, 0.9% Sodium Chloride ([6]; listed as 25HC3S magnesium): 8.3
- pH of the solubility sample, 5% Dextrose ([6]; listed as 25HC3S magnesium): 7.1
- pH of the solubility sample, FaSSGF [6]: 1.6
- pH of the solubility sample, FaSSIF ([6]; listed as 25HC3S magnesium): 6.5
- pH of the solubility sample, FeSSIF ([6]; listed as 25HC3S magnesium): 4.9
- pH of the solubility sample, Water ([6]; listed as 25HC3S magnesium): 8.7
Structure (SMILES): CC(CCCC(C)(C)O)C1CCC2C3CC=C4CC(OS(=O)(=O)O)CCC4(C)C3CCC12C (stereo not shown) [Salt #13]

- Powder flowability, overall (in words) ([1]; listed as crystalline 25HC3S lysine): relatively good flowability
- Powder flowability, overall (in words) ([1]; listed as lysine): top three
- Angle of Repose Rank Order [1]: 2
- Hausner Ratio Rank Order [1]: 2
- Overall Rank Order (Total Score) [1]: 4
- Weight loss by TGA, 100° C. to […] C. ([2]; 100° C. to […] C., partly decomposition): about 8.8%
- Weight loss by TGA to about 100° C. ([2]; to about 100° C.): about 1.5%
- Angle of Repose [3]: 25.7 degrees
- Angle of Repose, Rounded Whole Number [3]: 26 degrees
- Hausner Ratio [4]: 1.32
- Compressibility Index [4]: 24
- Appearance ([5]; 2-8° C., 3 wk): White, free flowing powder with clumping
- Appearance ([5]; 2-8° C., 5 wk): White, free flowing powder with clumping
- pH of the solubility sample, 0.9% Sodium Chloride [6]: 8.4
- pH of the solubility sample, 5% Dextrose [6]: 7.5
- pH of solubility sample solution in 5% dextrose ([6]; 5% dextrose (medium pH 4.7)): 7.5
- pH of the solubility sample, FaSSGF [6]: 1.6
- pH of the solubility sample, FaSSIF [6]: 6.5
- pH of the solubility sample, FeSSIF [6]: 5.0
- pH of the solubility sample, Water [6]: 8.8
Structure (SMILES): C[C@H](CCCC(C)(C)O)[C@H]1CC[C@H]2[C@@H]3CC=C4C[C@@H](OS(=O)(=O)O)CC[C@]4(C)[C@H]3CC[C@]12C [Salt #14]
